Laboratory results: patent US20120196927A1, “PROPHYLACTIC AND/OR THERAPEUTIC AGENT FOR METABOLIC SYNDROME” (priority 2009, published 2012)

How the values were obtained:
[1] = test system: gluconeogenesis-related genes PEPCK, G6Pase; test: Diabetes model mice: mRNA expression in the liver (real time RT-PCR); type: in vivo, mouse; conditions: ob/ob mice, Vehicle = 1.00, nobiletin 200 mg/kg/day, Pioglitazone 30 mg/kg/day, 5 weeks
Description: The effects by nobiletin ingestion to the mRNA expression in the white adipose tissue and the liver were measured (n=10).
After the termination of the administration period for 5 weeks, mRNA expression levels of respective genes shown in the table 10 were determined by using real time RT-PCR method. The real time RT-PCR was carried out according to an operation manual provided by ISOGEN (NIPPON GENE CO., LTD); RNA was extracted from the white adipose tissue and the liver. Next, cDNA was prepared from using 1 μg of RNA by using Reverse Transcription System kit (Promega Corp., USA). Next, suitable primers for the above-mentioned genes were prepared according to the operation manual provided by FastStart universal SYBR (a registered trademark) Greenmaster PCR KIT agent (Roche Diagnostics K. K., Germany).
Real time PCR system 7700HT (Applied Biosytems, USA) was used for the determination to carry out the real time PCR by using the cDNAs as templates. Each reaction conditions were set according to the manual of the PCR KIT. Quantitative analysis of the RNA amount was carried out based on comparative Ct method by using glyceraldehyde 3-phosphate dehydrogenase (GAPDH) as the standard reference.

GLUT4 protein = test: Diabetes model mice: GLUT4 protein expression level (Western blotting); type: in vivo, mouse; conditions: ob/ob mice, nobiletin 200 mg/kg/day, Pioglitazone 30 mg/kg/day
Description: After finishing the experiment, the white adipose tissue and skeletal muscle were excised according to that described in the example 1, protein expression level of GLUT 4 were detected by using Western blotting method. The expression levels of GLUT4 protein were determined by using Na^+/K^+ ATPase α-1 protein as an internal reference.

[2] = Western blotting, Vehicle = 1.00, 5 weeks

COc1ccc(-c2cc(=O)c3c(OC)c(OC)c(OC)c(OC)c3o2)cc1OC [nobiletin]
Gene expression level (ratio), [L]G6Pase [1]: 0.29 ± 0.01 | Gene expression level (ratio), [L]PEPCK [1]: 0.34 ± 0.03 | Gene expression level (ratio), Skeletal muscle (GLUT4 protein) (GLUT4 protein; [2]): 6.32 | Gene expression level (ratio), White adipose tissue (GLUT4 protein) (GLUT4 protein; [2]): 1.75 | GLUT4 protein expression amount in the skeletal muscle, times higher than vehicle administration group (GLUT4 protein): about 6 times | GLUT4 protein expression level in the white adipose tissue, times higher than vehicle administration group (GLUT4 protein): 1.7 times
